Molecules are shown by their SMILES.

The first test concerns the target T1, recombinant human NK3 receptor (Homo sapiens, UniProt P29371).
T1 construct: expressed in transfected cells; host or cells: HEK293 cells, transient expression; membranes
T1 sequence (P29371 1-465): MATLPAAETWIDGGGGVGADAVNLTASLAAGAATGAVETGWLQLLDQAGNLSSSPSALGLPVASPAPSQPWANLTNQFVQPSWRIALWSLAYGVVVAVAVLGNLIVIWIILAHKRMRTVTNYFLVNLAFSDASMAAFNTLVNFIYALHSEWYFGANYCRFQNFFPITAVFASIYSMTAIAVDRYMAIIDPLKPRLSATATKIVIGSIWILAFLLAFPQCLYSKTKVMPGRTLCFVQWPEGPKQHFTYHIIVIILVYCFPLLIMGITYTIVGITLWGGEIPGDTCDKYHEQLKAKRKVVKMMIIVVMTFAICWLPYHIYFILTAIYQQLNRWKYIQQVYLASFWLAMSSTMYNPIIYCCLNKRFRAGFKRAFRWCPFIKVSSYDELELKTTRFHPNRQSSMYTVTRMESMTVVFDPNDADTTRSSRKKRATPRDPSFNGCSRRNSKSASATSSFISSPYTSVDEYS
The experiment in a line: [3H]SR142801 competition binding assay.
Conditions: not given
In general, Ki refers to a dissociation constant, usually derived from enzyme kinetics or from competition with a known ligand. As for `CN(C(=O)Oc1ccccc1)[C@@H]1CN(C(=O)C2CCN(c3ccc(C#N)cn3)CC2)C[C@H]1c1ccc(Cl)cc1` [Example 200, [(3S,4R)-4-(4-Chloro-phenyl)-1-(5′-cyano-3,4,5,6-tetrahydro-2H-[1,2′]bipyridinyl-4-carbonyl)-pyrrolidin-3-yl]-methyl-carbamic acid phenyl ester], the Ki was 7.2 nM.

In the case of `Cc1ccc([C@H]2CN(C(=O)C3CCN(C(=O)C4(C)CC4)CC3)C[C@@H]2N(C)C(=O)Oc2ccc(F)cc2)cc1Cl` (racemic) [Example 70, rac-{(3R,4S)-4-(3-Chloro-4-methyl-phenyl)-1-[1-(1-methyl-cyclopropanecarbonyl)-piperidine-4-carbonyl]-pyrrolidin-3-yl}-methyl-carbamic acid 4-fluoro-phenyl ester], the Ki stood at 1.3 nM.

Regarding `CC(CC(F)(F)F)OC(=O)N(C)[C@@H]1CN(C(=O)C2CCN(c3ccc(C#N)cn3)CC2)C[C@H]1c1ccc(Cl)cc1` (stereo partly drawn) [Example 177, [(3S,4R)-4-(4-Chloro-phenyl)-1-(5′-cyano-3,4,5,6-tetrahydro-2H-[1,2′]bipyridinyl-4-carbonyl)-pyrrolidin-3-yl]-methyl-carbamic acid 3,3,3-trifluoro-1-methyl-propyl ester], the Ki worked out at 18.9 nM.

Consider `CN(C(=O)Oc1ccc(F)cc1)[C@H]1CN(C(=O)CCC(N)=O)C[C@@H]1c1ccc(Cl)c(Cl)c1` (racemic) [Example 55, rac-[(3R,4S)-1-(3-Carbamoyl-propionyl)-4-(3,4-dichloro-phenyl)-pyrrolidin-3-yl]-methyl-carbamic acid 4-fluoro-phenyl ester], for which the Ki was 86.1 nM.

For the molecule `CN(C(=O)Oc1ccc(F)cc1)[C@@H]1CN(C(=O)C2CCN(C(=O)C3CCC3)CC2)C[C@H]1c1ccc(Cl)c(Cl)c1` [Example 265, [(3S,4R)-1-(1-Cyclobutanecarbonyl-piperidine-4-carbonyl)-4-(3,4-dichloro-phenyl)-pyrrolidin-3-yl]-methyl-carbamic acid 4-fluoro-phenyl ester], the Ki is 0.6 nM.

With `CC(OC(=O)N(C)[C@@H]1CN(C(=O)C2CCN(c3ccc(C#N)cn3)CC2)C[C@H]1c1ccc(Cl)cc1)c1ccc(F)cc1` (stereo partly drawn) [Example 226, [(3S,4R)-4-(4-Chloro-phenyl)-1-(5′-cyano-3,4,5,6-tetrahydro-2H-[1,2′]bipyridinyl-4-carbonyl)-pyrrolidin-3-yl]-methyl-carbamic acid 1-(4-fluoro-phenyl)-ethyl ester], the Ki amounted to 79.2 nM.

Consider `CN(C(=O)Oc1ccc(F)cc1)[C@H]1CN(C(=O)C2CCN(C(=O)C3CC3)CC2)C[C@@H]1c1ccc(Cl)c(Cl)c1` (racemic) [Example 74, rac-[(3R,4S)-1-(1-Cyclopropanecarbonyl-piperidine-4-carbonyl)-4-(3,4-dichloro-phenyl)-pyrrolidin-3-yl]-methyl-carbamic acid 4-fluoro-phenyl ester], for which the inhibitory constant (Ki) stood at 0.8 nM.

As to `CN(C(=O)Oc1ccc(F)cc1)[C@@H]1CN(C(=O)C2CCN(C(=O)C3CC3(F)F)CC2)C[C@H]1c1ccc(Cl)cc1` (stereo partly drawn) [Example 256, {(3S,4R)-4-(4-Chloro-phenyl)-1-[1-(2,2-difluoro-cyclopropanecarbonyl)-piperidine-4-carbonyl]-pyrrolidin-3-yl}-methyl-carbamic acid 4-fluoro-phenyl ester], the inhibition constant Ki came to 2.6 nM.

With `COc1ccc(OC(=O)N(C)[C@@H]2CN(C(=O)C3CCN(CC4CC4)CC3)C[C@H]2c2ccc(Cl)c(Cl)c2)cc1` [Example 21, [(3S,4R)-1-(1-Cyclopropylmethyl-piperidine-4-carbonyl)-4-(3,4-dichloro-phenyl)-pyrrolidin-3-yl]-methyl-carbamic acid 4-methoxy-phenyl ester], the inhibition constant (Ki) came to 10.4 nM.

Turning to `COCC(=O)N1CCC(C(=O)N2C[C@@H](N(C)C(=O)Oc3ccc(F)cc3)[C@H](c3ccc(Cl)cc3)C2)C1` (stereo partly drawn) [Example 172, {(3S,4R)-4-(4-Chloro-phenyl)-1-[1-(2-methoxy-acetyl)-pyrrolidine-3-carbonyl]-pyrrolidin-3-yl}-methyl-carbamic acid 4-fluoro-phenyl ester], the Ki was determined as 4.1 nM.

Regarding `CN(C(=O)Oc1ccc(F)cc1)[C@@H]1CN(C(=O)C2CCN(C(=O)c3ccc(C(F)(F)F)cn3)CC2)C[C@H]1c1ccc(Cl)c(Cl)c1` [Example 279, {(3S,4R)-4-(3,4-Dichloro-phenyl)-1-[1-(5-trifluoromethyl-pyridine-2-carbonyl)-piperidine-4-carbonyl]-pyrrolidin-3-yl}-methyl-carbamic acid 4-fluoro-phenyl ester], the Ki is 2 nM.

With `CN(C(=O)Oc1ccc(F)cc1)[C@@H]1CN(C(=O)C2CCN(C(=O)OC(C)(C)C)C2)C[C@H]1c1ccc(Cl)cc1` (stereo partly drawn) [Example 151, 3-{(3R,4S)-3-(4-Chloro-phenyl)-4-[(4-fluoro-phenoxycarbonyl)-methyl-amino]-pyrrolidine-1-carbonyl}-pyrrolidine-1-carboxylic acid tert-butyl ester], the Ki came to 18.2 nM.

For the molecule `CN(C(=O)Oc1ccc(F)cc1)[C@@H]1CN(C(=O)C2CCN(c3ccc(S(C)(=O)=O)cn3)CC2)C[C@H]1c1ccc(Cl)cc1` [Example 180, [(3S,4R)-4-(4-Chloro-phenyl)-1-(5′-methanesulfonyl-3,4,5,6-tetrahydro-2H-[1,2′]bipyridinyl-4-carbonyl)-pyrrolidin-3-yl]-methyl-carbamic acid 4-fluoro-phenyl ester], the inhibitory constant (Ki) stood at 0.7 nM.

For the molecule `CN(C(=O)Oc1ccc(F)cc1)[C@H]1CN(C(=O)[C@H]2CC[C@@H](O)CC2)C[C@@H]1c1ccc(Cl)c(Cl)c1` (racemic) [Example 47, rac-[(3R,4S)-4-(3,4-Dichloro-phenyl)-1-(cis-4-hydroxy-cyclohexanecarbonyl)-pyrrolidin-3-yl]-methyl-carbamic acid 4-fluoro-phenyl ester], the inhibitory constant (Ki) was found to be 3.4 nM.

Turning to `CN(C(=O)Oc1ccc(F)cc1)[C@@H]1CN(C(=O)C2CCN(c3ccc(F)cn3)CC2)C[C@H]1c1ccc(Cl)c(Cl)c1` [Example 309, [(3S,4R)-4-(3,4-Dichloro-phenyl)-1-(5′-fluoro-3,4,5,6-tetrahydro-2H-[1,2′]bipyridinyl-4-carbonyl)-pyrrolidin-3-yl]-methyl-carbamic acid 4-fluoro-phenyl ester], the Ki stood at 0.5 nM.

For `COc1ccc(OC(=O)N(C)[C@@H]2CN(C(=O)C3CCN(c4ccc(C#N)cn4)CC3)C[C@H]2c2ccc(Cl)cc2)cc1` [Example 201, [(3S,4R)-4-(4-Chloro-phenyl)-1-(5′-cyano-3,4,5,6-tetrahydro-2H-[1,2′]bipyridinyl-4-carbonyl)-pyrrolidin-3-yl]-methyl-carbamic acid 4-methoxy-phenyl ester], the inhibition constant Ki stood at 3.3 nM.

In the case of `COCC(=O)N1CCC(C(=O)N2C[C@H](c3ccc(Cl)c(Cl)c3)[C@@H](N(C)C(=O)Oc3ccc(F)cc3)C2)CC1` (racemic) [Example 75, rac-{(3R,4S)-4-(3,4-Dichloro-phenyl)-1-[1-(2-methoxy-acetyl)-piperidine-4-carbonyl]-pyrrolidin-3-yl}-methyl-carbamic acid 4-fluoro-phenyl ester], the Ki is 0.6 nM.

For `CN(C(=O)O[C@H]1CC[C@H](C(F)(F)F)CC1)[C@@H]1CN(C(=O)C2CCN(C3CCOCC3)CC2)CC1c1ccc(Cl)c(Cl)c1` (stereo in doubt) [Example 123, {(3S,4R)-4-(3,4-Dichloro-phenyl)-1-[1-(tetrahydro-pyran-4-yl)-piperidine-4-carbonyl]-pyrrolidin-3-yl}-methyl-carbamic acid 4-trifluoromethyl-cyclohexyl ester], the Ki was 2.8 nM.

Take `CCC(C)(C)OC(=O)N(C)[C@@H]1CN(C(=O)C2CCN(c3ccc(C#N)cn3)CC2)C[C@H]1c1ccc(Cl)cc1` [Example 234, [(3S,4R)-4-(4-Chloro-phenyl)-1-(5′-cyano-3,4,5,6-tetrahydro-2H-[1,2′]bipyridinyl-4-carbonyl)-pyrrolidin-3-yl]-methyl-carbamic acid 1,1-dimethyl-propyl ester]: the inhibition constant (Ki) is 79.4 nM.

Still in this test, the particulars now being: hNK-3 receptor affinity; membranes from HEK293 cells transiently expressing recombinant human NK3 receptor; [3H]SR142801; Cheng-Prussoff; read-out: Data Ki.
As for `CN(C(=O)OC1CCCC1)[C@@H]1CN(C(=O)C2CCN(c3ccc(C#N)cn3)CC2)C[C@H]1c1ccc(Cl)cc1` [Example 204, [(3S,4R)-4-(4-Chloro-phenyl)-1-(5′-cyano-3,4,5,6-tetrahydro-2H-[1,2′]bipyridinyl-4-carbonyl)-pyrrolidin-3-yl]-methyl-carbamic acid cyclopentyl ester], the Ki worked out at 41.2 nM.

With `CN(C(=O)OCCCC(F)(F)F)[C@@H]1CN(C(=O)C2CCN(C(=O)C3(C)CC3)CC2)C[C@H]1c1ccc(Cl)c(Cl)c1` [Example 82, {(3S,4R)-4-(3,4-Dichloro-phenyl)-1-[1-(1-methyl-cyclopropanecarbonyl)-piperidine-4-carbonyl]-pyrrolidin-3-yl}-methyl-carbamic acid 4,4,4-trifluoro-butyl ester], the Ki was determined as 1.4 nM.

Regarding `CN(C(=O)OCCC1CC1)[C@H]1CN(C(=O)C2CCN(C(=O)C3(C)CC3)CC2)C[C@@H]1c1ccc(Cl)c(Cl)c1` (racemic) [Example 25, rac-{(3R,4S)-4-(3,4-Dichloro-phenyl)-1-[1-(1-methyl-cyclopropanecarbonyl)-piperidine-4-arbonyl]-pyrrolidin-3-yl}-methyl-carbamic acid 2-cyclopropyl-ethyl ester], the Ki was 5.4 nM.

On to `COCCOC(=O)N(C)[C@@H]1CN(C(=O)C2CCN(c3ccc(C#N)cn3)CC2)C[C@H]1c1ccc(Cl)cc1` [Example 206, [(3S,4R)-4-(4-Chloro-phenyl)-1-(5′-cyano-3,4,5,6-tetrahydro-2H-[1,2′]bipyridinyl-4-carbonyl)-pyrrolidin-3-yl]-methyl-carbamic acid 2-methoxy-ethyl ester], for which the Ki was 90.6 nM.

For the origin of these results see US9226916B2, “Pyrrolidine derivatives” (HOFFMANN-LA ROCHE INC., priority 2009, dated 2016).
